# Assay results taken from patent publication US10280179B2, “Spiroquinoxaline derivatives as inhibitors of non-apoptotic regulated cell-death” (Helmholtz Zentrum Munchen—Deutches Forschungszentrum Fur …, priority 2013, dated 2019).
# Like-named read-outs stand apart in the source and are kept apart here.
# Experiments:
# C57BL/6 mice = experiment: Traumatic brain injury (controlled cortical impact) animal model (Example C.5); type: in vivo, mouse; details: TBI (CCI), 24 h after CCI, compared to vehicle control, FIG. 4
# Experimental: FIG. 4: Efficiency of a compound of the invention in an animal model of traumatic brain injury.
# Briefly, to test such utility of compounds disclosed herein, male C57BL/6 mice are anesthetised prior to the induction of trauma. Core body temperature is maintained at 37° C. using a feedback-controlled heating pad connected to a rectal probe. To induce trauma, a craniotomy is prepared over the right parietal cortex. Controlled cortical impact (CCI) is delivered perpendicular to the surface of the brain with a custom-made CCI applicator for mice using the following parameters: 8 m/s velocity, 3 mm diameter, 1 mm brain displacement and 150 ms duration. Following CCI, the skull is closed by affixing the removed bone flap using veterinary-grade tissue glue (Vetbond, 3M, St. Paul, Minn.). Compounds are administered at 1 mg/Kg or 10 mg/Kg (dissolved in 40% PEG) 15 minutes after TBI induction and 40% PEG is included as vehicle control. The animals are recovered from anesthesia in an incubator heated to 33° C. Animals are sacrificed and the brain is removed 24 h after CCI and immediately frozen on crushed dry ice and stored at −80° C. […] The sections are stained with cresyl violet for quantifying the area of contused brain, and contusion volume is calculated and the effect of the compounds tested observed following analysis of such data.
# [1] = Cellular toxicity, same assay as Example B.4 without TAM (Example B.5); type: cell-based; details: mouse; Pfa1 cells without TAM; read-out: TC50 (the source's name)
# Description: Cellular Toxicity of Compounds of the Invention
# An estimate of the toxicity for compounds of the invention was obtained by using the same assay as described in Example B.4, but without the addition of TAM. […] Such TC50 values obtained for certain compounds disclosed herein, together with an approximate therapeutic window (estimated by dividing each TC50 by the corresponding IC50 determined from example B.4) are shown in Table 3.
# Pfa1 cells = experiment: Inhibition of non-apoptotic cell death after tamoxifen-induced GPx4 knockout in a recombinant cell line (Example B.4); type: cell-based; details: Mus musculus, read-out: Pfa1/TAM IC50
# How it was run: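 Immortalised murine fibroblasts with tamoxifen-inducible CreERT2 for ablation of both GPx4 copies (Pfa1 cells) received tamoxifen on day 0 together with test compound. Cell survival was measured by AlamarBlue after 72 hours.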
# [2] = test system: mouse hippocampal cell line (Ht22); experiment: Inhibition of glutamate-induced non-apoptotic cell death (Example B.2); type: cell-based; details: HT-22, Ht22 cells
# How it was run: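 Ht22 cells (2,000/well, DMEM/10% FBS) seeded together with 5 mM glutamate and compound (0.5 pM to 100 μM, triplicate), incubated 72 h at 37 °C/5% CO2. Cell survival then quantified; glutamate alone as negative control, alpha-tocopherol as positive control.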
smiles,measurement,setting,value
Clc1cccc(CNC2=Nc3ccccc3NC23CCNCC3)c1 [N-2],contusion volume in the brains of mice following traumatic brain injury,C57BL/6 mice,trend of a (non-significant) positive effect
same,CC50,[1],5 to 10 µM
same,IC50,Pfa1 cells,< 0.02 µM
same,IC50,"[2]; glutamate 5 mM, 72 hours, cell survival, read-out: Ht22/GLU (Example B.2) IC50",~0.01 µM
same,IC50,"[2]; glutamate-induced cell death, read-out: Ht22/GLU",< 0.2 µM
